The target in this assay is human NaV 1.8 channels stably expressed in HEK 293 cells (Homo sapiens (Human), UniProt Q9Y5Y9). The assay is described as follows: Nav1.8 Qube automated patch-clamp assay. It is filed as cell-based. To be noted: human NaV1.8 in HEK 293 cells, whole-cell voltage clamp, room temperature; read-out: IC50 values (nM) for Examples in the Nav1.8 Qube Assay. The protocol: Compounds were tested on human NaV 1.8 and NaV1.5 channels stably expressed in human embryo kidney (HEK) 293 cells. Sodium current measurements on Qube® were conducted as follows: automated 384-well patch-clamp assays on the Qube® platform (Sophion Biosciences) were used to measure the inhibition of sodium flow through human NaV1.8 and NaV1.5 channels. Whole-cell voltage-clamp recordings were performed in QChips® (Sophion Biosciences) at room temperature. NaV1.8 current measurements on Qube® were obtained as follows: NaV1.8 currents were elicited with a 10 second 1 Hertz (Hz) pulse train from a holding potential of −90 millivolts (mV), delivered to the cells once per minute in the control condition (DMSO only) and after compound addition. The 1 hertz pulse train stimulation consisted of ten test pulses to 10 millivolt (mV) for 20 milliseconds (ms), each of which was followed by a 980 millisecond repolarization to −67 millivolts. At the end of the 10 second pulse train stimulation, a 5 second hyperpolarization step to −100 millivolt (mV) was used to recover NaV1.8 from fast inactivation. The peak currents elicited by the 1st and 10th test pulses were used to determine IC50 values for resting inhibition and inactivated state inhibition. NaV1.5 current measurements on Qube® were obtained as follows: NaV1.5 currents were elicited with a 20 second 3 Hertz pulse train in the control condition (DMSO only) and after compound addition. The pulse train consisted of sixty 20 millisecond test pulses to 0 millivolt from a holding potential of −80 millivolt (mV). The average peak currents elicited by the last 3 test pulses were used to determine IC50 values for NaV1.5 inhibition.
human NaV 1.8 channels stably expressed in HEK 293 cells, sequence (Q9Y5Y9 whole entry): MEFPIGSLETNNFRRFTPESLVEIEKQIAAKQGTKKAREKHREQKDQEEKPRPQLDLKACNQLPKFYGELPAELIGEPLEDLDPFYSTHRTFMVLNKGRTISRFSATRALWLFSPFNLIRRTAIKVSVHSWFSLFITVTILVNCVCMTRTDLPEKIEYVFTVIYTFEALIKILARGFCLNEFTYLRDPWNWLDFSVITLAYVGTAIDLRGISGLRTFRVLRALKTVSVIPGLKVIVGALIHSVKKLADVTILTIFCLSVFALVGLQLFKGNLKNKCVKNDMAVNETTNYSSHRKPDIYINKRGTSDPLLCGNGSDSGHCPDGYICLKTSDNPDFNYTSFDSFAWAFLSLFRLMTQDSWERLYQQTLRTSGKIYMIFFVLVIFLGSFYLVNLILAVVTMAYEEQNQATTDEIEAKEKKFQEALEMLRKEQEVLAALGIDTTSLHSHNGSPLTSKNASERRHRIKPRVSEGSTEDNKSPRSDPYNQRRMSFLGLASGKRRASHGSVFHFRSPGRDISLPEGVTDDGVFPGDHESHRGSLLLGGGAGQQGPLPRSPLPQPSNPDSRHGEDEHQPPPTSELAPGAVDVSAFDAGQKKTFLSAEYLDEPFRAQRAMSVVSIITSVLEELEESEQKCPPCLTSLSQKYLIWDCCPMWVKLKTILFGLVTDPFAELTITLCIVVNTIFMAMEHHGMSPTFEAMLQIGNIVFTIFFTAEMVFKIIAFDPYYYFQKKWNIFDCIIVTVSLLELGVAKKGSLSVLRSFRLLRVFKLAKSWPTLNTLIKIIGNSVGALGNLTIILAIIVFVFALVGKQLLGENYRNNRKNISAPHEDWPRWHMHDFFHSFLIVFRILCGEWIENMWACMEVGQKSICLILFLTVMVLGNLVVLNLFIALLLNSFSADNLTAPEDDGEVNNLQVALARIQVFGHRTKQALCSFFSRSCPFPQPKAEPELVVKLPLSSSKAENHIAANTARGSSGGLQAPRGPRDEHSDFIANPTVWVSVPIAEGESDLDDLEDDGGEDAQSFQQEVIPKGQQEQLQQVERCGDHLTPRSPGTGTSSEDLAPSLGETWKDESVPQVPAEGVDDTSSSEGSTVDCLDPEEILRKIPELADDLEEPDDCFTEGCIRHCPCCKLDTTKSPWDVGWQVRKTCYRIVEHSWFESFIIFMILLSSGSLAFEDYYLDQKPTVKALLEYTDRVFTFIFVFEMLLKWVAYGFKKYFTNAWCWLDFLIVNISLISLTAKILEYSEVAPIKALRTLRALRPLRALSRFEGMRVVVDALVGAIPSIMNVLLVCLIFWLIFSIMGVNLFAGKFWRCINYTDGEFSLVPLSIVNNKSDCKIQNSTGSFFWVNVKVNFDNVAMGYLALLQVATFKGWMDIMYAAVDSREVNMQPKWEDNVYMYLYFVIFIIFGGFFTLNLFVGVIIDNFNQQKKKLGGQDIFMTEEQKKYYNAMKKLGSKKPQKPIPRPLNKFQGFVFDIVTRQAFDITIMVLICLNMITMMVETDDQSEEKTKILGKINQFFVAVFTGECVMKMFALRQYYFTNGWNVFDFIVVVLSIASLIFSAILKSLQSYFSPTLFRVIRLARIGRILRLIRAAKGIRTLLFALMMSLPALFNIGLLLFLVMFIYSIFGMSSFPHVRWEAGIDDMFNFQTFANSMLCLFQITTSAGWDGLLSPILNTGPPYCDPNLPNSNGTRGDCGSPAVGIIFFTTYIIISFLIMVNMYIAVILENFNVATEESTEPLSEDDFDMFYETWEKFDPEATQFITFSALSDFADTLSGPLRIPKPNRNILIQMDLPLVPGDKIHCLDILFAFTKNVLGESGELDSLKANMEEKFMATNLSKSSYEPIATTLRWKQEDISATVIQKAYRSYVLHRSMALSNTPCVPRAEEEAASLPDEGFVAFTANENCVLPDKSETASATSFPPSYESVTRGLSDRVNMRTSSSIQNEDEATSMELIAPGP
The following buffers were used for the Qube® recordings: External buffer for NaV1.8 Qube® recording: 150 NaCl, 2 CaCl2, 5 KCl, 1 MgCl2, 10 HEPES, 12 Dextrose; External buffer for Qube® NaV1.5 recording: 120 N-Methyl-D-Glucamine, 40 NaCl, 1 KCl, 2.7 CaCl2), 5 HEPES, 0.5 MgCl2; and Internal buffer for Qube® recording: 120 CsF, 30 CsCl, 10 EGTA, 5 HEPES, 5 NaF, 2 MgCl2.
For all Qube® experiments offline analysis was used to determine percent inhibition as a function of drug concentration. IC50 values were determined by fitting to the Hill equation.
(Patch clamp records ionic current or voltage across a cell membrane.)
Regarding `C[C@@H]1C(=O)NCCN1C(=O)NC(c1ccc(OCC(F)(F)F)nc1)c1ccc(F)c(Cl)c1F` (single isomer, unassigned) [Example 1A], the IC50 amounted to 1.09 nM.

Take `C[C@@H]1C(=O)NCCN1C(=O)NC(c1ccc(OCC(F)(F)F)nc1)c1ccc(F)c(Cl)c1F` (single isomer, unassigned) [Example 1B]: the IC50 was 30.9 nM.

As for `O=C1CN(C(=O)NC(c2ccc(OCC(F)(F)F)nc2)c2ccc(F)c(Cl)c2)CCN1` (single isomer, unassigned) [Example 2A, N-((R or S)-(3-chloro-4-fluorophenyl)(6-(2,2,2-trifluoro-ethoxy)pyridin-3-yl)methyl)-3-oxopiperazine-1-carboxamide], the IC50 stood at 8.98 nM.

`O=C1CN(C(=O)NC(c2ccc(OCC(F)(F)F)nc2)c2ccc(F)c(Cl)c2)CCN1` (single isomer, unassigned) [Example 2B, N-((S or R)-(3-chloro-4-fluorophenyl)(6-(2,2,2-trifluoroethoxy)pyridin-3-yl)methyl)-3-oxopiperazine-1-carboxamide]: the IC50 turned out to be 123 nM.

Take `C[C@@H]1C(=O)NCCN1C(=O)NC(c1ccc(OCC(F)(F)F)nc1)c1ccc(F)c(Cl)c1` (single isomer, unassigned) [Example 3A, (2R)-N-((R or S)-(3-chloro-4-fluorophenyl)(6-(2,2,2-trifluoro-ethoxy)pyridin-3-yl)methyl)-2-methyl-3-oxopiperazine-1-carboxamide]: the IC50 was 2.22 nM.

For the compound `C[C@@H]1C(=O)NCCN1C(=O)NC(c1ccc(OCC(F)(F)F)nc1)c1ccc(F)c(Cl)c1` (single isomer, unassigned) [Example 3B, (2R)-N-((S or R)-(3-chloro-4-fluorophenyl)(6-(2,2,2-trifluoro-ethoxy)pyridin-3-yl)methyl)-2-methyl-3-oxopiperazine-1-carboxamide], the IC50 is 21.9 nM.

Take `C[C@@H]1C(=O)NCCN1C(=O)NC(c1ccc(OC(F)(F)F)nc1)c1ccc(F)c(Cl)c1F` (single isomer, unassigned) [Example 4A, (2R)-N-((R or S)-(3-chloro-2,4-difluorophenyl)(6-(trifluoromethoxy)pyridin-3-yl)methyl)-2-methyl-3-oxopiperazine-1-carboxamide]: the IC50 worked out at 3.9 nM.

In the case of `C[C@@H]1C(=O)NCCN1C(=O)NC(c1ccc(OC(F)(F)F)nc1)c1ccc(F)c(Cl)c1F` (single isomer, unassigned) [Example 4B, (2R)-N-((S or R)-(3-chloro-2,4-difluorophenyl)(6-(trifluoromethoxy)pyridin-3-yl)methyl)-2-methyl-3-oxopiperazine-1-carboxamide], the IC50 was 25.7 nM.

For the compound `C[C@@H]1C(=O)NCCN1C(=O)NC(c1ccc(Cl)cc1)c1ccc(OCC(F)(F)F)nc1` (single isomer, unassigned) [Example 5A, (2R)-N-((R or S)-(4-chlorophenyl)(6-(2,2,2-trifluoro-ethoxy)pyridin-3-yl)methyl)-2-methyl-3-oxopiperazine-1-carboxamide], the IC50 was 17.6 nM.

For `C[C@@H]1C(=O)NCCN1C(=O)NC(c1ccc(Cl)cc1)c1ccc(OCC(F)(F)F)nc1` (single isomer, unassigned) [Example 5B, (2R)-N-((S or R)-(4-chlorophenyl)(6-(2,2,2-trifluoro-ethoxy)pyridin-3-yl)methyl)-2-methyl-3-oxopiperazine-1-carboxamide], the IC50 was 28.9 nM.

With `C[C@@H]1C(=O)NCCN1C(=O)NC(c1ccc(OCC(F)(F)F)nc1)c1ccc(F)c(F)c1` (single isomer, unassigned) [Example 6A, (2R)-N-((R or S)-(3,4-difluorophenyl)(6-(2,2,2-trifluoro-ethoxy)pyridin-3-yl)methyl)-2-methyl-3-oxopiperazine-1-carboxamide], the IC50 came to 20 nM.

As to `C[C@@H]1C(=O)NCCN1C(=O)NC(c1ccc(OCC(F)(F)F)nc1)c1ccc(F)c(F)c1` (single isomer, unassigned) [Example 6B, (2R)-N-((S or R)-(3,4-difluorophenyl)(6-(2,2,2-trifluoro-ethoxy)pyridin-3-yl)methyl)-2-methyl-3-oxopiperazine-1-carboxamide], the IC50 is 128 nM.

In the case of `C[C@@H]1C(=O)NCCN1C(=O)NC(c1ccc(OCC(F)(F)F)nc1)c1cc(F)c(F)c(Cl)c1` (single isomer, unassigned) [Example 7A, (2R)-N-((R or S)-(3-chloro-4,5-difluorophenyl)(6-(2,2,2-trifluoro-ethoxy)pyridin-3-yl)methyl)-2-methyl-3-oxopiperazine-1-carboxamide], the IC50 was determined as 10.8 nM.

Consider `C[C@@H]1C(=O)NCCN1C(=O)NC(c1ccc(OCC(F)(F)F)nc1)c1cc(F)c(F)c(Cl)c1` (single isomer, unassigned) [Example 7B, (2R)-N-((S or R)-(3-chloro-4,5-difluoro-phenyl)(6-(2,2,2-tri-fluoroethoxy)pyridin-3-yl)methyl)-2-methyl-3-oxo-piperazine-1-carboxamide], for which the 50% inhibitory concentration (IC50) was 19.6 nM.

Regarding `O=C1CN(C(=O)NC(c2ccc(OCC(F)(F)F)nc2)c2ccc(F)c(Cl)c2F)CCN1` (single isomer, unassigned) [Example 8A, N-((R or S)-(3-chloro-2,4-difluorophenyl)(6-(2,2,2-trifluoroethoxy)pyridin-3-yl)methyl)-3-oxopiperazine-1-carboxamide], the IC50 came to 4.46 nM.

Take `O=C1CN(C(=O)NC(c2ccc(OCC(F)(F)F)nc2)c2ccc(F)c(Cl)c2F)CCN1` (single isomer, unassigned) [Example 8B, N-((S or R)-(3-chloro-2,4-difluorophenyl)(6-(2,2,2-trifluoroethoxy)pyridin-3-yl)methyl)-3-oxopiperazine-1-carboxamide]: the IC50 worked out at 136 nM.

`C[C@@H]1C(=O)NCCN1C(=O)NC(c1ccc(Cl)cc1)c1cccc(C(F)(F)F)n1` (single isomer, unassigned) [Example 9A, (2R)-N-((R or S)-(4-chlorophenyl)(6-(trifluoromethyl)pyridin-2-yl)methyl)-2-methyl-3-oxo-piperazine-1-carboxamide]: the IC50 amounted to 61.6 nM.

For `C[C@@H]1C(=O)NCCN1C(=O)NC(c1ccc(Cl)cc1)c1cccc(C(F)(F)F)n1` (single isomer, unassigned) [Example 9B, (2R)-N-((S or R)-(4-chlorophenyl)(6-(trifluoromethyl)pyridin-2-yl)methyl)-2-methyl-3-oxopiperazine-1-carboxamide], the IC50 turned out to be 8.03 nM.

Consider `C[C@@H]1C(=O)NCCN1C(=O)NC(c1cnc(OCC(F)(F)F)c(F)c1)c1ccc(F)c(Cl)c1F` (single isomer, unassigned) [Example 10A, (2R)-N-((R or S)-(3-chloro-2,4-difluorophenyl)(5-fluoro-6-(2,2,2-trifluoroethoxy)pyridin-3-yl)methyl)-2-methyl-3-oxopiperazine-1-carboxamide], for which the IC50 was 1.18 nM.

In the case of `C[C@@H]1C(=O)NCCN1C(=O)NC(c1cnc(OCC(F)(F)F)c(F)c1)c1ccc(F)c(Cl)c1F` (single isomer, unassigned) [Example 10B, (2R)-N-((S or R)-(3-chloro-2,4-difluorophenyl)(5-fluoro-6-(2,2,2-trifluoroethoxy)pyridin-3-yl)methyl)-2-methyl-3-oxopiperazine-1-carboxamide], the IC50 amounted to 28 nM.

With `C[C@@H]1C(=O)NCCN1C(=O)NC(c1ccc(F)c(Cl)c1)c1ccc2nc(C(F)(F)F)cn2c1` (single isomer, unassigned) [Example 11A, (2R)-N-((R or S)-(3-chloro-4-fluoro-phenyl)(2-(trifluoro-methyl)imidazo[1,2-a]pyridin-6-yl)-methyl)-2-methyl-3-oxopiperazine-1-carboxamide], the IC50 turned out to be 67.4 nM.

On to `C[C@@H]1C(=O)NCCN1C(=O)NC(c1ccc(F)c(Cl)c1)c1ccc2nc(C(F)(F)F)cn2c1` (single isomer, unassigned) [Example 11B], for which the IC50 came to 196 nM.

`C[C@@H]1C(=O)NCCN1C(=O)NC(c1cnc(OCC(F)(F)F)nc1)c1ccc(F)c(Cl)c1F` (single isomer, unassigned) [Example 12A]: the IC50 was 9.24 nM.

Consider `C[C@@H]1C(=O)NCCN1C(=O)NC(c1cnc(OCC(F)(F)F)nc1)c1ccc(F)c(Cl)c1F` (single isomer, unassigned) [Example 12B], for which the IC50 is 501 nM.

As for `C[C@@H]1C(=O)NCCN1C(=O)NC(c1cnc(OCC(F)(F)F)s1)c1ccc(F)c(Cl)c1F` (single isomer, unassigned) [Example 13A, (2R)-N-((R or S)-(3-chloro-2,4-difluoro-phenyl)(2-(2,2,2-tri-fluoroethoxy)thiazol-5-yl)methyl)-2-methyl-3-oxopiperazine-1-carboxamide], the IC50 was determined as 2.13 nM.

One may read the IC50 as the midpoint of a concentration-inhibition curve.
